Consider 3 molecules from patent US20160158267A1, “METHODS OF PREVENTING, REDUCING OR TREATING MACULAR DEGENERATION” (Inotek Pharmaceuticals Corporation, priority 2014, published 2016).

Values joined by “and” are separate entries in the source; they are usually repeats but may differ in a detail not shown here. Equal values may be shown once. Read-outs that look alike come from different tables or passages of the source.

In data set [1] the target is T1, human adenosine A3 receptor (Homo sapiens, UniProt P0DMS8).
T1 sequence (P0DMS8 1-318): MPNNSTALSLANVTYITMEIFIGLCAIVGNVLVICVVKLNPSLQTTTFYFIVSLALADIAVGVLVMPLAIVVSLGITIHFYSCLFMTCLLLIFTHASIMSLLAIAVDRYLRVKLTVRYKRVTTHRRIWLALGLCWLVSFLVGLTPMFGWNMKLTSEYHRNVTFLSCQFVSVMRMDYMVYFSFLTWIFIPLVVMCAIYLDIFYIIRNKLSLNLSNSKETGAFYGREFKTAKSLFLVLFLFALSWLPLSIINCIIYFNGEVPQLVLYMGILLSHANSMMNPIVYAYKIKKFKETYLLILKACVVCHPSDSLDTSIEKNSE
Briefly: Inhibition of forskolin-stimulated adenylyl cyclase via A3 receptor, CHO cell membranes. Format: biochemical. The settings on record: membranes of CHO cells stably transfected with human A3.
Description: The A1 and A3 receptor-mediated inhibition of forskolin-stimulated adenylyl cyclase activity was tested in membranes prepared from CHO cells stably transfected with the human A1 and A3 adenosine receptors.

Data set [2] has as its system BALB/c mice. Format: in vivo. The note with it: for Group mean of the number of cell layers in retinal outer nuclear layer: placebo 7.22. An excerpt: (§1) The rodent retina is widely used to investigate retinal diseases, as well as the response of central nervous system neurons to injury. Light-induced retinal damage (phototoxicity) selectively brings about photoreceptor cell death. Thus, this model is useful for studying the potential mechanisms underlying photoreceptor death and the subsequent retinal degeneration processes since it mimics the photoreceptor degeneration that forms the main characteristic of age-related macular degeneration.
(§2) Aliquots were removed from the refrigerator and allowed to warm to room temperature for at least 30 minutes before dosing. The positive control, BDNF, was reconstituted with 0.9% Sodium Chloride for Injection, USP at a concentration of 1 μg/μL. Any residual volumes were discarded.
(§3) Thirty-four (34) male BALB/c mice were received from Charles River, St Constant.
The test item and placebo were administered by twice-daily topical ocular instillation from Days 1 to 7, separated by at least 8 hours. The dose volume for each eye/dose was 10 μL. The formulations were stirred continuously during dose administration and were retained on wet ice between doses.
(§4) The positive control, BDNF, was administered to Group 4 animals by single bilateral intravitreal (IVT) injection on Day 1. The dose volume was 1 μL/eye. Animals were anesthetized for the dosing procedure using an isoflurane/oxygen mix and/or a sedative cocktail (ketamine 100 mg/kg; xylazine 10 mg/kg; half or quarter dose if needed given by intraperitoneal injection). Injections were made using a glass microneedle connected to a Hamilton syringe via a sclera pilot hole created with a 30 G needle. A bland lubricating ointment was applied to the eyes following dosing.
On Day 2, animals were transferred to the blue light bins (housed individually). Light fixtures with bulbs emitting blue light (460 to 490 nm; Philips F40/BB Special Blue F40T12/BB) were attached to separate housing racks directly above the cages, such that all animals received similar light exposure. The light intensity in the bins was measured using a light meter; the average intensity was 550 lux. Hiding devices/tubes and bedding were not available in the bins.
Mortality/moribundity checks were performed twice daily, once in the morning and once in the afternoon, throughout the study. Detailed examinations were performed weekly. Individual body weights were measured twice pre-treatment and at necropsy.
Electroretinography (ERG) was performed once pre-treatment and once at the end of Week 1 following overnight dark adaptation. The anesthetic used was ketamine (100 mg/kg) and xylazine (10 mg/kg).
All animals were euthanized on Day 8 and underwent exsanguination from the abdominal aorta after carbon dioxide asphyxiation. No necropsy examinations were performed.
One eye from each animal was embedded in paraffin, sectioned, mounted on glass slides, and stained with hematoxylin and eosin. The other eye was retained.
Histopathological evaluation was performed by a board-certified veterinary pathologist or veterinary pathologist with training and experience in laboratory animal pathology. The outer nuclear layer (ONL) thickness (number of cell layers) were counted at 4 locations in the retina and a microscopic evaluation of the retina, including pigmented retinal epithelial cells, was conducted. Representative images were captured for consultation and illustrative purposes.

For data set [3], the system named is BALB/c mice. In kind it is in vivo.
Description: as §1, §2, §3
The dose volume for each eye/dose was 10 μL. The formulations were stirred continuously during dose administration and were retained on wet ice between doses.
as §4
On Day 2, animals were transferred to the blue light bins (housed individually). Light fixtures with bulbs emitting blue light (460 to 490 nm; Philips F40/BB Special Blue F40T12/BB) were attached to separate housing racks directly above the cages, such that all animals received similar light exposure. […] Hiding devices/tubes and bedding were not available in the bins.
The anesthetic used was ketamine (100 mg/kg) and xylazine (10 mg/kg).
All animals were euthanized on Day 8 and underwent exsanguination from the abdominal aorta after carbon dioxide asphyxiation.
One eye from each animal was embedded in paraffin, sectioned, mounted on glass slides, and stained with hematoxylin and eosin.
The outer nuclear layer (ONL) thickness (number of cell layers) were counted at 4 locations in the retina and a microscopic evaluation of the retina, including pigmented retinal epithelial cells, was conducted.

For another data set, the target named is A2A adenosine receptor (Homo sapiens, UniProt P29274). Briefly: Adenosine receptor binding, A1 > A2A selectivity. The settings on record: ratio of Ki values.
A2A adenosine receptor, sequence (P29274 whole entry): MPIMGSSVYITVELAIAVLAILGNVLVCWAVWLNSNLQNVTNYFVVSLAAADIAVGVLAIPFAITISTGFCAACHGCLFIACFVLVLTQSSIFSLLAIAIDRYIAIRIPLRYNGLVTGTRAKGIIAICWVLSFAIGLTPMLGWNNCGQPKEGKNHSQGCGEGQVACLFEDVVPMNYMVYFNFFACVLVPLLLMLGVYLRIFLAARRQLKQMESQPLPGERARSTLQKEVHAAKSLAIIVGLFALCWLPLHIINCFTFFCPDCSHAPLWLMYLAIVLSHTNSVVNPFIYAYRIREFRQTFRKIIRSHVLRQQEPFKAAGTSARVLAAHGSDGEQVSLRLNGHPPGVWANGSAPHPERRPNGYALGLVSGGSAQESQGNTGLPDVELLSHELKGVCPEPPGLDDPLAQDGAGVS

Description for A2A adenosine receptor: The cell suspension is then homogenized in ice-cold hypotonic buffer (5 mM Tris/HCl mM EDTA, pH 7.4) and the homogenate is spun for 10 minutes (4° C.) at 1,000 g.

The term EC50 denotes the concentration that produces a half-maximal response. A low value points to an effect from little substance. Take `O=[N+]([O-])OC[C@H]1O[C@@H](n2cnc3c(NC4CCCC4)ncnc32)[C@H](O)[C@@H]1O` [Compound A, ((2R,3S,4R,5R)-5-(6-(cyclopentylamino)-9H-purin-9-yl)-3,4-dihydroxytetrahydrofuran-2-yl)methyl nitrate]: the EC50 in data set [1] was over 100000 nM. In addition, the “Incidence of minimal to moderate decrease in cellularity of the retina” value with BALB/c mice [2] (300 μg/eye/day topical, placebo 6/8) is recorded as 7/8. In addition, the results for the “Group mean of the number of cell layers in retinal outer nuclear layer” value with BALB/c mice [2] (300 μg/eye/day topical) and in the data set with BALB/c mice [2] (600 μg/eye/day topical) were 7.28 layers and 8.56 layers, respectively. Also, the “Incidence of minimally decreased retinal cellularity” value in the data set with BALB/c mice [2] (600 μg/eye/day topical, other animals not affected at all) was 2/8. Besides, the “Overall effect on incidence and severity of decreased retinal cellularity” value with BALB/c mice [2] (600 μg/eye/day, 7 days twice daily topical ocular instillation) was “protective effect”. In addition, the “Retinal outer nuclear layer thickness (Mean number of nuclei), individual animals” value was 10.00 and 9.25 and 6.50 and 5.25 and 7.25 and 6.25 and 5.50 and 8.25 with BALB/c mice [2] (Group 2, low dose 300 μg/eye/day, animals 2001-2008, mean of 4 measurements per retina); 9.25 and 9.00 and 9.75 and 7.75 (2×) and 9.50 and 8.75 and 6.75 in the data set on BALB/c mice [2] (Group 3, high dose 600 μg/eye/day, animals 3001-3008, mean of 4 measurements per retina). Also, the “Abnormalities in general appearance or condition of the animals” value in the data set on BALB/c mice [2] (male BALB/c mice, dosing period, 300 or 600 μg/eye/day topical twice daily Days 1 to 7) is listed as “No abnormalities were observed”. Besides, the “ERG parameters (scotopic single flash 0 dB, A-wave and B-wave)” value in the data set with BALB/c mice [2] (one week after blue light exposure, 300 or 600 μg/eye/day, versus other groups including placebo) is recorded as “comparable across treatment groups”. In addition, the “Average number of cell layers in the ONL, placebo compared to treated group” value with BALB/c mice [3] (600 or 900 μg/eye/day topical) is reported as “reduced in the placebo group”. The “B-wave amplitude following 0 dB scotopic flash stimuli” value with BALB/c mice [3] (600 or 900 μg/eye/day, versus placebo control, comparable to BDNF positive control) is on record as “higher”. The “Number of nuclear bodies in the ONL based on average ONL thickness counts” value in the data set with BALB/c mice [3] (low dose group (600 μg/eye/day), compared with all groups) was “retained the greatest number of nuclear bodies in the ONL”. In addition, in the data set on BALB/c mice [3] (two or three-times daily at 600 or 900 μg/eye/day topical, 1100 lux for 6 hours on Day 2), the “Overall ERG function and ONL cellularity after blue light exposure” value was “preservation of ERG function and cellularity in the ONL layer of the retina”.
Consider `O=[N+]([O-])OC[C@H]1O[C@@H](n2cnc3c(NC4CCOC4)ncnc32)[C@H](O)[C@@H]1O` (stereo partly drawn) [Compound D, ((2R,3S,4R,5R)-3,4-dihydroxy-5-(6-(tetrahydrofuran-3-ylamino)-9H-purin-9-yl)tetrahydrofuran-2-yl)methyl nitrate], for which the “A1 > A2A SELECTIVITY [KiA2(nm)/KiA1(nm)]” value at A2A adenosine receptor is reported as over 9434.

B1: BDNF: Brain Derived Neurotrophic Factor, positive control given by single bilateral intravitreal injection (protein, UniProt P23560 19-247, looked up)
Neurotrophic factor BDNF …: APMKEANIRGQGGLAYPGVRTHGTLESVNGPKAGSRGLTSLADTFEHVIEELLDEDQKVRPNEENNKDADLYTSRVMLSSQVPLEPPLLFLLEEYKNYLDAANMSMRVRRHSDPARRGELSVCDSISEWVTAADKKTAVDMSGGTVTVLEKVPVSKGQLKQYFYETKCNPMGYTKEGCRGIDKRHWNSQCRTTQSYVRALTMDSKKRIGWRFIRIDTSCVCTLTIKRGR
As to B1, the “Group mean of the number of cell layers in retinal outer nuclear layer” value with BALB/c mice [2] (1 μg/eye single IVT injection Day 1) was 8.75 layers. In addition, in the data set on BALB/c mice [2] (Group 4, 1 μg/eye/day IVT, animals 4001-4008, mean of 4 measurements per retina), the “Retinal outer nuclear layer thickness (Mean number of nuclei), individual animals” value was 7.75 (2×) and 9.25 and 8.50 (2×) and 8.75 and 10.50 and 9.00. The “Average number of cell layers in the ONL, placebo compared to treated group” value in the data set with BALB/c mice [3] (BDNF control, 1 μg/eye IVT) is given as “reduced in the placebo group”.
